The values that follow come from US20230265116A1, “DEGRADATION OF (EGFR) BY CONJUGATION OF EGFR INHIBITORS WITH E3 LIGASE LIGAND AND METHODS OF USE” (BEIGENE, LTD., priority 2020, published 2023).

For assay [1], the target named is T1, EGFR L858R/T790M/C797S (BaF3-LTC cells) (Homo sapiens, UniProt P00533, C797S/L858R/T790M).
T1 construct: expressed in transfected cells; host or cells: BaF3
Put plainly: EGFR degradation HTRF assay, BaF3-LTC cells. It is filed as cell-based. The note with it: BaF3-LTC, 16h treatment; for Dmax: maximum percentage of degradation, read-out: LTC Dmax (%); for DC50: read-out: LTC DC50. In outline:
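Cells treated 16 h at 37 °C, 5% CO2 in medium with 0.2% DMSO; top final concentration 10 uM, 5-fold dilution, 8 doses. Lysates read by HTRF (665/620 nm); degradation % versus DMSO high control, DC50 from four-parameter fit, Dmax as maximal degradation.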

Assay [2] concerns EGFR Del19/T790M/C797S (BaF3-DTC cells). Put plainly: EGFR degradation HTRF assay, BaF3-DTC cells. It is filed as cell-based. The note with it: 16h treatment; for DTC Dmax (%): maximum percentage of degradation; for DC50: read-out: DTC DC50. In outline: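 EGFR remaining after a 16 h, 37 °C exposure (8 doses, 5-fold steps from 10 uM final, 0.2% DMSO) was quantified by HTRF antibodies in cell lysate. Percent inhibition relative to DMSO control was fitted by four-parameter logistic to give DC50; Dmax denotes maximal degradation.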

T1 sequence (P00533 25-1210 T790M/C797S/L858R): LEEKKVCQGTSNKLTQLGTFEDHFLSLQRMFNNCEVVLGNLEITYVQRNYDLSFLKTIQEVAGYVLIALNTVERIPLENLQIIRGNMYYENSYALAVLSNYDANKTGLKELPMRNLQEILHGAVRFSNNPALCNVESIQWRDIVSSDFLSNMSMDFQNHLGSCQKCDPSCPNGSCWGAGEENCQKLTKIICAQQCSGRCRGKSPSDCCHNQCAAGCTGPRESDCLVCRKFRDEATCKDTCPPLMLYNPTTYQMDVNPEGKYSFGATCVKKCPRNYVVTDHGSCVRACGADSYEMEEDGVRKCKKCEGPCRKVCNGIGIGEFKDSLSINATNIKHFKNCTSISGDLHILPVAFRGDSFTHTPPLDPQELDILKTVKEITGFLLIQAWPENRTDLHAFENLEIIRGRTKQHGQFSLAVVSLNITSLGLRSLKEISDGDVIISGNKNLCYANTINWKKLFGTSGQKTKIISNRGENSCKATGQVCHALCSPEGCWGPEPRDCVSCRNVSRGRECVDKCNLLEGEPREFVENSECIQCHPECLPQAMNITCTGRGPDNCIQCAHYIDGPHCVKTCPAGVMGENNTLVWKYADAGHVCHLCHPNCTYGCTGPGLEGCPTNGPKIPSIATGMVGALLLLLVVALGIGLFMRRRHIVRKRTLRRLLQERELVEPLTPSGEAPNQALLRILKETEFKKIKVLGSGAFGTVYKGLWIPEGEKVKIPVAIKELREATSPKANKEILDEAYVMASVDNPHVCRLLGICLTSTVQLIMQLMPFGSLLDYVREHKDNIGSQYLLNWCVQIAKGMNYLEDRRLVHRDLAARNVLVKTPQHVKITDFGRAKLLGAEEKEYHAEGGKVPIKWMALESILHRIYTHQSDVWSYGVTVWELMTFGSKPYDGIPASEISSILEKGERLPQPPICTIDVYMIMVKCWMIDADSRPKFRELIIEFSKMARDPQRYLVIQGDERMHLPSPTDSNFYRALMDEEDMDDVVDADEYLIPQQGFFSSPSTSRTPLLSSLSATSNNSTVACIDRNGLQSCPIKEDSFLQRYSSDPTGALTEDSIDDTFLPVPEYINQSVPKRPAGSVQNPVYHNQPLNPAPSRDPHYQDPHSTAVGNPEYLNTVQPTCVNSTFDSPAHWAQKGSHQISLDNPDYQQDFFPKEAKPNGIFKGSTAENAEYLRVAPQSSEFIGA

Regarding `CCc1cc(Nc2ncc(Br)c(Nc3ccc4nccnc4c3P(C)(C)=O)n2)c(OC)cc1N1CCC(N2CCN(C(=O)C3CN(c4ccc(C5CCC(=O)NC5=O)c(C#N)c4)C3)CC2)CC1` (centres unmarked) [Example 306, 5-(3-(4-(1-(4-((5-bromo-4-((5-(dimethylphosphoryl)quinoxalin-6-yl)amino)pyrimidin-2-yl)amino)-2-ethyl-5-methoxyphenyl)piperidin-4-yl)piperazine-1-carbonyl)azetidin-1-yl)-2-(2,6-dioxopiperidin-3-yl)benzonitrile], in assay [1], the Dmax stood at 85.8% and the DC50 came out at 17.1 nM. Besides, in assay [2], the “DTC Dmax (%)” value is 73.14% and the DC50 worked out at 9.57 nM.

As to `CCc1cc(Nc2ncc(Br)c(Nc3ccc4nc(C)ccc4c3P(C)(C)=O)n2)c(OC)cc1N1CCC(N2CCCN(CCc3cc(F)c(C4CCC(=O)NC4=O)c(F)c3)CC2)CC1` (centres unmarked) [Example 713, 3-(4-(2-(4-(1-(4-((5-bromo-4-((5-(dimethylphosphoryl)-2-methylquinolin-6-yl)amino)pyrimidin-2-yl)amino)-2-ethyl-5-methoxyphenyl)piperidin-4-yl)-1,4-diazepan-1-yl)ethyl)-2,6-difluorophenyl)piperidine-2,6-dione], in assay [1], the Dmax stood at 90.4% and the DC50 amounted to 50.8 nM. Besides, in assay [2], the “DTC Dmax (%)” value is on record as 86.33% and the DC50 stood at 7.43 nM.

As for `CCc1cc(Nc2ncc(Br)c(Nc3ccc4nccnc4c3P(C)(C)=O)n2)c(OC)cc1N1CCC(N2CCN(C(=O)C3CCN(c4ccc5nn(C6CCC(=O)NC6=O)cc5c4)CC3)CC2)CC1` (centres unmarked) [Example 308, 3-(5-(4-(4-(1-(4-((5-bromo-4-((5-(dimethylphosphoryl)quinoxalin-6-yl)amino)pyrimidin-2-yl)amino)-2-ethyl-5-methoxyphenyl)piperidin-4-yl)piperazine-1-carbonyl)piperidin-1-yl)-2H-indazol-2-yl)piperidine-2,6-dione], in assay [1], the Dmax is 91.8% and the DC50 is 15.6 nM. In assay [2], the “DTC Dmax (%)” value was 93.79% and the DC50 stood at 5.01 nM.

Take `CCc1cc(Nc2ncc(Br)c(Nc3ccc4nc(C)ccc4c3P(C)(C)=O)n2)c(OC)cc1N1CCC(N2CCN(CCc3cc(F)c(C4CCC(=O)NC4=O)c(F)c3)CC2)CC1` (centres unmarked) [Example 314, 3-(4-(2-(4-(1-(4-((5-bromo-4-((5-(dimethylphosphoryl)-2-methylquinolin-6-yl)amino)pyrimidin-2-yl)amino)-2-ethyl-5-methoxyphenyl)piperidin-4-yl)piperazin-1-yl)ethyl)-2,6-difluorophenyl)piperidine-2,6-dione]: in assay [1], the Dmax amounted to 87.8% and the DC50 was determined as 6.5 nM. Also, in assay [2], the “DTC Dmax (%)” value amounted to 91.87% and the DC50 came to 2.48 nM.

Consider `CCc1cc(Nc2ncc(Br)c(Nc3ccc4nccnc4c3P(C)(C)=O)n2)c(OC)cc1N1CCC(N2CCN(C(=O)C3CN(c4ccc5nn(C6CCC(=O)NC6=O)cc5c4)C3)CC2)CC1` (centres unmarked) [Example 315, 3-(5-(3-(4-(1-(4-((5-bromo-4-((5-(dimethylphosphoryl)quinoxalin-6-yl)amino)pyrimidin-2-yl)amino)-2-ethyl-5-methoxyphenyl)piperidin-4-yl)piperazine-1-carbonyl)azetidin-1-yl)-2H-indazol-2-yl)piperidine-2,6-dione], for which, in assay [1], the Dmax was 82% and the DC50 was determined as 12.9 nM. In assay [2], the “DTC Dmax (%)” value is recorded as 89.47% and the DC50 was 4.27 nM.

Consider `COc1cc(N2CCC(N3CCN(CCC4CCN(c5cc(F)c(C6CCC(=O)NC6=O)c(F)c5)CC4)CC3=O)CC2)c(C)cc1Nc1ncc(Br)c(Nc2ccc3nccnc3c2P(C)(C)=O)n1` (centres unmarked) [Example 216, 3-(4-(4-(2-(4-(1-(4-((5-bromo-4-((5-(dimethylphosphoryl)quinoxalin-6-yl)amino)pyrimidin-2-yl)amino)-5-methoxy-2-methylphenyl)piperidin-4-yl)-3-oxopiperazin-1-yl)ethyl)piperidin-1-yl)-2,6-difluorophenyl)piperidine-2,6-dione], for which, in assay [1], the Dmax is 87.7% and the DC50 was found to be 23.3 nM. Further, in assay [2], the “DTC Dmax (%)” value came to 93.59% and the DC50 came out at 5.56 nM.

With `CCc1cc(Nc2ncc(Br)c(Nc3ccc4c(=O)n(C)ncc4c3P(C)(C)=O)n2)c(OC)cc1N1CCC(N2CCN(CCc3cc(F)c(C4CCC(=O)NC4=O)c(F)c3)CC2)CC1` (centres unmarked) [Example 431, 3-(4-(2-(4-(1-(4-((5-bromo-4-((5-(dimethylphosphoryl)-2-methyl-1-oxo-1,2-dihydrophthalazin-6-yl)amino)pyrimidin-2-yl)amino)-2-ethyl-5-methoxyphenyl)piperidin-4-yl)piperazin-1-yl)ethyl)-2,6-difluorophenyl)piperidine-2,6-dione], in assay [1], the Dmax came out at 91% and the DC50 was found to be 12.4 nM. For the same compound, in assay [2], the “DTC Dmax (%)” value is 97.96% and the DC50 was 2.7 nM.

On to `CCc1cc(Nc2ncc(Br)c(Nc3ccc4nccnc4c3P(C)(C)=O)n2)c(OC)cc1N1CCC(N2CCN(C[C@H]3C[C@H](N(C)c4ccc(C5CCC(=O)NC5=O)cc4)C3)CC2)CC1` (some centres unmarked) [Example 245, 3-(4-(((1r,3r)-3-((4-(1-(4-((5-bromo-4-((5-(dimethylphosphoryl)quinoxalin-6-yl)amino)pyrimidin-2-yl)amino)-2-ethyl-5-methoxyphenyl)piperidin-4-yl)piperazin-1-yl)methyl)cyclobutyl)(methyl)amino)phenyl)piperidine-2,6-dione], for which, in assay [1], the Dmax is 81.4% and the DC50 was 30.1 nM. In addition, in assay [2], the “DTC Dmax (%)” value is listed as 87.52% and the DC50 was found to be 11.9 nM.

For the compound `CCc1cc(Nc2ncc(Br)c(Nc3ccc4nccnc4c3P(C)(C)=O)n2)c(OC)cc1N1CCC(N2CCN(CCc3cc(F)c(C4CCC(=O)NC4=O)cc3Cl)CC2)CC1` (centres unmarked) [Example 165, 3-(4-(2-(4-(1-(4-((5-bromo-4-((5-(dimethylphosphoryl)quinoxalin-6-yl)amino)pyrimidin-2-yl)amino)-2-ethyl-5-methoxyphenyl)piperidin-4-yl)piperazin-1-yl)ethyl)-5-chloro-2-fluorophenyl)piperidine-2,6-dione], in assay [1], the Dmax is 84.2% and the DC50 came to 44 nM. In addition, in assay [2], the “DTC Dmax (%)” value turned out to be 82.21% and the DC50 was determined as 18.1 nM.

Consider `CCc1cc(Nc2ncc(Br)c(Nc3ccc4nccnc4c3P(C)(C)=O)n2)c(OC)cc1N1CCC(N2C[C@@H](C)N(CC3CN(c4ccc5c(c4)C(=O)N(C4CCC(=O)NC4=O)C5=O)C3)[C@@H](C)C2)CC1` (stereo partly drawn) [Example 159, 5-(3-(((2R,6S)-4-(1-(4-((5-bromo-4-((5-(dimethylphosphoryl)quinoxalin-6-yl)amino)pyrimidin-2-yl)amino)-2-ethyl-5-methoxyphenyl)piperidin-4-yl)-2,6-dimethylpiperazin-1-yl)methyl)azetidin-1-yl)-2-(2,6-dioxopiperidin-3-yl)isoindoline-1,3-dione], for which, in assay [1], the Dmax worked out at 88.3% and the DC50 is 16.1 nM. In assay [2], the “DTC Dmax (%)” value was found to be 87.25% and the DC50 was determined as 9.34 nM.

Turning to `CCc1cc(Nc2ncc(Cl)c(Nc3ccc4nccnc4c3P(C)(C)=O)n2)c(OC)cc1N1CCC(N2CCN(CCC3CCN(c4cc(F)c(C5CCC(=O)NC5=O)c(F)c4)CC3)CC2)CC1` (centres unmarked) [Example 269, 3-(4-(4-(2-(4-(1-(4-((5-chloro-4-((5-(dimethylphosphoryl)quinoxalin-6-yl)amino)pyrimidin-2-yl)amino)-2-ethyl-5-methoxyphenyl)piperidin-4-yl)piperazin-1-yl)ethyl)piperidin-1-yl)-2,6-difluorophenyl)piperidine-2,6-dione], in assay [1], the Dmax came out at 88.8% and the DC50 was determined as 43.7 nM. Also, in assay [2], the “DTC Dmax (%)” value is listed as 95.39% and the 50% degradation concentration (DC50) came to 21.5 nM.

As to `CCc1cc(Nc2ncc(Br)c(Nc3ccc4nc(C)ccc4c3P(C)(C)=O)n2)c(OC)cc1N1CCC(N2CCN(CCc3ccc4c(c3)C(C)(C)C(=O)N4C3CCC(=O)NC3=O)CC2)CC1` (centres unmarked) [Example 711, 3-(5-(2-(4-(1-(4-((5-bromo-4-((5-(dimethylphosphoryl)-2-methylquinolin-6-yl)amino)pyrimidin-2-yl)amino)-2-ethyl-5-methoxyphenyl)piperidin-4-yl)piperazin-1-yl)ethyl)-3,3-dimethyl-2-oxoindolin-1-yl)piperidine-2,6-dione], in assay [1], the Dmax came out at 90.8% and the DC50 worked out at 2.88 nM. Moreover, in assay [2], the “DTC Dmax (%)” value came to 91.94% and the DC50 came to 0.505 nM.

For `CCc1cc(Nc2ncc(Br)c(Nc3ccc4c(=O)n(C)ccc4c3P(C)(C)=O)n2)c(OC)cc1N1CCC(N2CCN(CCC3CCN(c4cc(F)c(C5CCC(=O)NC5=O)c(F)c4)CC3)CC2)CC1` (centres unmarked) [Example 720, 3-(4-(4-(2-(4-(1-(4-((5-bromo-4-((5-(dimethylphosphoryl)-2-methyl-1-oxo-1,2-dihydroisoquinolin-6-yl)amino)pyrimidin-2-yl)amino)-2-ethyl-5-methoxyphenyl)piperidin-4-yl)piperazin-1-yl)ethyl)piperidin-1-yl)-2,6-difluorophenyl)piperidine-2,6-dione], in assay [1], the Dmax stood at 91.7% and the DC50 is 20.3 nM. For the same compound, in assay [2], the “DTC Dmax (%)” value is reported as 86.63% and the DC50 came out at 10.4 nM.

Consider `CCc1cc(Nc2ncc(Br)c(Nc3ccc4nc(C)ccc4c3P(C)(C)=O)n2)c(OC)cc1N1CCC(N2CCN(C(=O)C3CN(c4ccc5c(c4)C(C)(C)C(=O)N5C4CCC(=O)NC4=O)C3)CC2)CC1` (centres unmarked) [Example 409, 3-(5-(3-(4-(1-(4-((5-bromo-4-((5-(dimethylphosphoryl)-2-methylquinolin-6-yl)amino)pyrimidin-2-yl)amino)-2-ethyl-5-methoxyphenyl)piperidin-4-yl)piperazine-1-carbonyl)azetidin-1-yl)-3,3-dimethyl-2-oxoindolin-1-yl)piperidine-2,6-dione], for which, in assay [1], the Dmax is 96.1% and the DC50 was found to be 1.46 nM. Further, in assay [2], the “DTC Dmax (%)” value came to 95.3% and the DC50 came out at 1.23 nM.
